Measurements from ChEMBL document CHEMBL1201862, “PubChem BioAssay data set” (2004).
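48-hour exposure; five concentrations; linearly interpolated endpoints. GI50: concentration for 50% inhibition of growth.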 The source made the active and inactive calls. No stated cut-off is given here; in the data, active = GI50 up to about 1.1 µM and inactive = higher.

What was measured:
Test in all cases: DTP human tumour cell line panel, 48 h
HCC 2998 = system: HCC 2998
HCT-116 = system: HCT-116
HCT-15 = system: HCT-15
IGROV-1 = system: IGROV-1
K562 = system: K562
KM12 = system: KM12
MDA-N = system: MDA-N
NCI-H460 = system: NCI-H460
NCI/ADR-RES = system: NCI/ADR-RES
OVCAR-3 = system: OVCAR-3
RPMI-8226 = system: RPMI-8226
SF-268 = system: SF-268
SN12C = system: SN12C
SNB-19 = system: SNB-19
SR = system: SR
U-251 = system: U-251
UO-31 = system: UO-31
NCI-H522 = system: NCI-H522
SF-295 = system: SF-295

With NC1CC(=O)c2c1sc(Cl)c2Cl (configuration not stated) the GI50 (HCC 2998) was > 100 µM (inactive), the GI50 (HCT-116) was > 100 µM (inactive) and the GI50 (HCT-15) was greater than 100 µM. The GI50 (IGROV-1) was > 100 µM (inactive), the GI50 (K562) was > 100 µM (inactive) and the GI50 (KM12) was > 100 µM (inactive). The GI50 (MDA-N) was > 100 µM (inactive), the GI50 (NCI-H460) was > 100 µM (inactive) and the GI50 (NCI/ADR-RES) was > 100 µM (inactive). For the same molecule, the GI50 (OVCAR-3) was > 100 µM (inactive), the GI50 (RPMI-8226) was > 100 µM (inactive) and the GI50 (SF-268) was > 100 µM (inactive). The GI50 (SN12C) was > 100 µM (inactive), the GI50 (SNB-19) was > 100 µM (inactive) and the GI50 (SR) was > 100 µM (inactive). The GI50 (U-251) was > 100 µM (inactive) and the GI50 (UO-31) was > 100 µM (inactive).
In the case of CC(C)(C)OC(=O)N/N=C(/N)Cc1ccc(Cl)cc1, the GI50 (HCC 2998) is reported as > 100 µM (inactive), the GI50 (HCT-116) is reported as > 100 µM (inactive) and the GI50 (HCT-15) is reported as greater than 100 µM. For the same molecule, the GI50 (IGROV-1) was > 100 µM (inactive), the GI50 (K562) was 37.2 µM (inactive) and the GI50 (KM12) was > 100 µM (inactive). The GI50 (MDA-N) was > 100 µM (inactive), the GI50 (NCI-H460) was > 100 µM (inactive) and the GI50 (NCI-H522) was > 100 µM (inactive). For the same molecule, the GI50 (NCI/ADR-RES) was > 100 µM (inactive), the GI50 (OVCAR-3) was > 100 µM (inactive) and the GI50 (SF-268) was > 100 µM (inactive). For the same molecule, the GI50 (SF-295) was > 100 µM (inactive), the GI50 (SN12C) was > 100 µM (inactive) and the GI50 (SNB-19) was > 100 µM (inactive). For the same molecule, the GI50 (SR) was 51.6 µM (inactive), the GI50 (U-251) was > 100 µM (inactive) and the GI50 (UO-31) was > 100 µM (inactive).
COC(=O)[C@@](C)(COC(=O)C(C)(C)C)NC(=O)OC(C)(C)C was tested, and the GI50 (HCC 2998) was > 100 µM (inactive), the GI50 (HCT-116) was > 100 µM (inactive) and the GI50 (HCT-15) was greater than 100 µM. For the same molecule, the GI50 (IGROV-1) was > 100 µM (inactive), the GI50 (K562) was > 100 µM (inactive) and the GI50 (KM12) was > 100 µM (inactive). For the same molecule, the GI50 (MDA-N) was > 100 µM (inactive), the GI50 (NCI-H460) was > 100 µM (inactive) and the GI50 (NCI-H522) was > 100 µM (inactive). The GI50 (NCI/ADR-RES) was > 100 µM (inactive), the GI50 (RPMI-8226) was > 100 µM (inactive) and the GI50 (SF-268) was > 100 µM (inactive). The GI50 (SF-295) was > 100 µM (inactive), the GI50 (SN12C) was > 100 µM (inactive) and the GI50 (SNB-19) was > 100 µM (inactive). The GI50 (SR) was > 100 µM (inactive), the GI50 (U-251) was > 100 µM (inactive) and the GI50 (UO-31) was > 100 µM (inactive).
With O=C1NC(=O)C(C(CC(=O)c2ccc([N+](=O)[O-])cc2)c2ccccc2)C(=O)N1 (configuration not stated) the GI50 (HCT-116) was 14.8 µM (inactive), the GI50 (HCT-15) was greater than 100 µM and the GI50 (IGROV-1) was > 100 µM (inactive). For the same molecule, the GI50 (K562) was 60.3 µM (inactive), the GI50 (KM12) was 14.8 µM (inactive) and the GI50 (MDA-N) was 27.2 µM (inactive). For the same molecule, the GI50 (NCI-H460) was > 100 µM (inactive), the GI50 (NCI-H522) was 47.2 µM (inactive) and the GI50 (NCI/ADR-RES) was > 100 µM (inactive). The GI50 (OVCAR-3) was 36.7 µM (inactive), the GI50 (RPMI-8226) was 31.3 µM (inactive) and the GI50 (SF-268) was 19.9 µM (inactive). For the same molecule, the GI50 (SF-295) was 4.79 µM (inactive), the GI50 (SN12C) was > 100 µM (inactive) and the GI50 (SNB-19) was 24.8 µM (inactive). For the same molecule, the GI50 (SR) was 40 µM (inactive), the GI50 (U-251) was 49.4 µM (inactive) and the GI50 (UO-31) was > 100 µM (inactive).
In the case of O=S(=O)(O)c1ccc2cc(/N=N/c3c(O)ccc4ccccc34)ccc2c1, the GI50 (HCC 2998) is reported as > 100 µM (inactive), the GI50 (HCT-116) is reported as > 100 µM (inactive) and the GI50 (HCT-15) is reported as greater than 100 µM. The GI50 (IGROV-1) was > 100 µM (inactive), the GI50 (K562) was > 100 µM (inactive) and the GI50 (KM12) was 97.5 µM (inactive). The GI50 (MDA-N) was > 100 µM (inactive), the GI50 (NCI-H460) was > 100 µM (inactive) and the GI50 (NCI-H522) was > 100 µM (inactive). The GI50 (NCI/ADR-RES) was > 100 µM (inactive), the GI50 (OVCAR-3) was > 100 µM (inactive) and the GI50 (SF-268) was > 100 µM (inactive). For the same molecule, the GI50 (SF-295) was > 100 µM (inactive), the GI50 (SN12C) was > 100 µM (inactive) and the GI50 (SNB-19) was > 100 µM (inactive). For the same molecule, the GI50 (SR) was > 100 µM (inactive), the GI50 (U-251) was > 100 µM (inactive) and the GI50 (UO-31) was > 100 µM (inactive).
For C=C1[C@H](OCC(C)C)[C@@H](OCC(C)C)[C@@H](O)C(C)(C)/C=C/[C@H](C)C(=O)[C@@]2(O)C[C@H](C)[C@H](O)[C@@H]2[C@H]1OCC(C)C, the GI50 (HCC 2998) was > 7.5 µM (inactive), the GI50 (HCT-116) was > 7.5 µM (inactive) and the GI50 (HCT-15) was 6.92 µM. The GI50 (K562) was 0.538 µM (active), the GI50 (KM12) was > 7.5 µM (inactive) and the GI50 (MDA-N) was 1.54 µM (inactive). The GI50 (NCI-H460) was 0.555 µM (active), the GI50 (NCI-H522) was > 7.5 µM (inactive) and the GI50 (NCI/ADR-RES) was > 7.5 µM (inactive). The GI50 (OVCAR-3) was > 7.5 µM (inactive), the GI50 (SF-268) was 6.24 µM (inactive) and the GI50 (SF-295) was 2.51 µM (inactive). For the same molecule, the GI50 (SN12C) was > 7.5 µM (inactive), the GI50 (SNB-19) was > 7.5 µM (inactive) and the GI50 (SR) was > 7.5 µM (inactive). For the same molecule, the GI50 (U-251) was > 7.5 µM (inactive) and the GI50 (UO-31) was 6.52 µM (inactive).
CC(=O)O[C@H]1C(=O)N(c2cc3c4ccccc4ccc3c3ccccc23)[C@@H]1c1ccccc1 was tested, and the GI50 (HCC 2998) was 5.04 µM (inactive), the GI50 (HCT-116) was 3.21 µM (inactive) and the GI50 (HCT-15) was 3.85 µM. For the same molecule, the GI50 (IGROV-1) was 2.11 µM (inactive), the GI50 (K562) was 4.8 µM (inactive) and the GI50 (KM12) was 2.9 µM (inactive). For the same molecule, the GI50 (MDA-N) was 3.86 µM (inactive), the GI50 (NCI-H460) was 4.31 µM (inactive) and the GI50 (NCI/ADR-RES) was 4.38 µM (inactive). The GI50 (OVCAR-3) was 1.71 µM (inactive), the GI50 (RPMI-8226) was 2.23 µM (inactive) and the GI50 (SF-268) was 7.24 µM (inactive). For the same molecule, the GI50 (SF-295) was 3.64 µM (inactive), the GI50 (SN12C) was 11 µM (inactive) and the GI50 (SNB-19) was 6.79 µM (inactive). The GI50 (SR) was 1.6 µM (inactive), the GI50 (U-251) was 7.33 µM (inactive) and the GI50 (UO-31) was 11.2 µM (inactive).
COc1cnnc2c(C)c(-c3ccccc3)nn12 was tested, and the GI50 (HCC 2998) was > 100 µM (inactive), the GI50 (HCT-116) was 77.1 µM (inactive) and the GI50 (HCT-15) was greater than 100 µM. For the same molecule, the GI50 (IGROV-1) was 38.4 µM (inactive), the GI50 (K562) was > 100 µM (inactive) and the GI50 (KM12) was > 75.2 µM (inactive). The GI50 (MDA-N) was 60.5 µM (inactive), the GI50 (NCI-H460) was 66.1 µM (inactive) and the GI50 (NCI-H522) was > 93.5 µM (inactive). The GI50 (NCI/ADR-RES) was > 100 µM (inactive), the GI50 (OVCAR-3) was 59.2 µM (inactive) and the GI50 (RPMI-8226) was 56.5 µM (inactive). For the same molecule, the GI50 (SF-268) was 82.4 µM (inactive), the GI50 (SF-295) was > 78.7 µM (inactive) and the GI50 (SN12C) was 30.1 µM (inactive). The GI50 (SNB-19) was > 77.6 µM (inactive), the GI50 (U-251) was > 70.3 µM (inactive) and the GI50 (UO-31) was 32.5 µM (inactive).
